# Test results as given in patent publication US8216785B2, “Method for detecting neuroblastoma” (Fujifilm Corporation, priority 2008, dated 2012).
# Non-standard residues stand in square brackets, D forms with d. Residues, ends and D or L forms follow the SMILES beside them. *: point of attachment. Nle = CCCC[C@H](N)C(=O)O; Cbz = O=C(OCc1ccccc1)*; CH2F = FC*
# Columns and labels:
# Format in all cases: cell-based
# [1] = tested on: Ad-LAPTM5-infected GOTO cells; experiment: Cell death frequency along with LAPTM5 accumulation, trypan blue exclusion; conditions: treated one day after Ad-LAPTM5 infection for additional one day
# Method: As in the case of (a), the cells that had died upon treatment were assayed via trypan blue exclusion. A vertical line represents the standard deviation of two experiments.
# (§1) Accordingly, whether or not LAPTM5 would undergo proteasomal or lysosomal proteolysis and whether or not LAPTM5 accumulation would be important for cell death were inspected. One day after Ad-LAPTM5 infection, the cells were treated with a proteasome inhibitor (ALLN or MG132) or a lysosome inhibitor (Bailomycin A1 and NH4Cl) for additional one day. Thereafter, the cells were recovered, samples were prepared, and Western blot analysis was performed. […] Further, this accumulation was also confirmed via fluorescent staining using the LAPTM5 antibody (FIG. 4b). […] Thus, LAPTM5 was considered to undergo proteasomal and lysosomal proteolysis, and LAPTM5 accumulation was considered to be deeply involved with induction of cell death. In order to examine whether or not LAPTM5 accumulation would be essential for induction of cell death, the influence of transfection of siRNA against LAPTM5 was then examined.
# [2] = tested on: LAPTM5 in Ad-LAPTM5-infected GOTO cells; experiment: LAPTM5 accumulation upon blocking proteasomal or lysosomal degradation, Western blot and fluorescent staining; conditions: treated one day after Ad-LAPTM5 infection for additional one day
# Method: The cells were treated with a proteasome inhibitor (ALLN or MG132) or a lysosomal degradation inhibitor (Bafilimycin A1 or […]) 1 day later. The cells were recovered 1 day later, the samples were prepared, and Western blot analysis was then carried out. The prepared samples were subjected to SDS-PAGE, and Western blot analysis was carried out using relevant antibodies.
# As with the case of (a), the cells were treated, fixed, subjected to the immune reaction using the LAPTM5 antibody, and visualized with the use of the Texas Red complex secondary antibody.
# After the control or LAPTM5 siRNA was transfected, the cells were treated as with the case of (a), and the samples were prepared. Western blot analysis was carried out using the LAPTM5 antibody.
# as §1
# GOTO cells [3] = experiment: Treatment with MPP+ or H2O2: cell death, LAPTM5 expression (quantitative RT-PCR), MYCN expression (Western blot); conditions: for LAPTM5 expression / frequency of cell death: MPP+ 1 or 2 mM 24 hours, H2O2 100 or 200 uM 48 hours; for MYCN expression: MPP+ or H2O2 treatment
# Method: In FIG. 5(a), the GOTO cells were treated with MPP+ (1 or 2 mM) for 24 hours or with H2O2 (100 or 200 uM) for 48 hours. Thereafter, the dead cells were assayed via trypan blue exclusion. The LAPTM5 expression level was analyzed via quantitative RT-PCR. A vertical line represents the standard deviation of two experiments.
# The prepared samples were subjected to SDS-PAGE, and Western blot analysis was carried out using relevant antibodies.
# The cause for NB cell degeneration upon regression of favorable NB tumors has not yet been elucidated. […] This indicates a common mechanism between NB tumor regression and cell degeneration in the case of neurodegenerative diseases. Mitochondrial injury and oxidative stress are known to be deeply involved in neuron degeneration in the case of neurodegenerative disease. […] MYCN proteins are known to not only activate but also suppress transcription of various target genes. Accordingly, MYCN proteins that have been activated via amplification were considered to suppress activation of LAPTM5 transcription induced by stress. Thus, whether or not MYCN would directly bind to a site in the vicinity of the transcription initiation point of the LAPTM5 gene was inspected via ChIP assay. […] Meanwhile, the IMR32 cell line is known to differentiate into nerve cells via treatment with retinoic acid.
# [4] = tested on: GOTO cells that stably express GFP-LC3; experiment: Treatment with an LMP inducer, immunoblot of GFP-LC3 type II and p62/SQSTM1; conditions: CPX 100 or 300 μg/ml
# Method: The GOTO cells (1×10^6 cells/well) that stably express GFP-LC3 were sowed on a 6-well plate and treated with ciprofloxican (CPX) (100 or 300 μg/ml) or a solvent thereof (0.1N hydrochloric acid) so as to induce LMP. The total cell extract obtained from the treated cells was electrophoresed via SDS-PAGE and subjected to immunoblot analysis using antibodies reacting with relevant proteins.
# LAPTM5 is known to be a membrane protein that localizes in the lysosome. […] Such changes in LTR staining patterns result from LMP, which indicates destabilization and destruction of the lysosome. LMP was observed along with an increase in LAPTM5-induced cell death (2.7 times in GOTO cell (p=0.0007) and 5.4 times in IMR32 cell (p=0.0108), compared with Ad-LacZ cell; FIG. 11). […] Accordingly, LAPTM5-induced LMP was deduced to induce blocking of the autophagy pathway. […] In conformity with the results of in vitro observation, elevated expression of p62/SQSTM1, ubiquitinated proteins, and cathepsin D was also observed via immunohistological staining (FIG. 3f). […] At the same time, lysosome instability induced by LAPTM5 was considered to induce accumulation of immature autophagic vesicles and ubiquitinated proteins.
# IMR32 cells = experiment: Frequency of dead cells via trypan blue exclusion after adenovirus infection; conditions: zVAD 100 μM
# Method: (§2) The cells that had been sowed under the same conditions as in (b) were infected with the same MOIs of Ad-LacZ or Ad-LAPTM5. Also, the cell lines were treated or not treated with the pan-caspase inhibitor, zVAD-fink. The number of dead cells was determined via trypan blue exclusion 2 days and 4 days after infection and was indicated in terms of percentage. A vertical line represents the standard deviation of two experiments.
# (§3) In order to inspect whether or not LAPTM5 expression is associated with cell death of neuroblastoma cells, the influence of forced LAPTM5 expression in the neuroblastoma cell line was inspected using the adenovirus-mediated expression system. Cell death and the survival rate were assayed by sowing the cells on a 24-well plate and infecting the cells with the selected MOIs of viruses (multiplicities of infection; PFU/cell). The number of dead cells was determined via trypan blue exclusion 2 or 4 days after infection. The pan-caspase inhibitor, zVAD-fml, was used at a concentration of 100 μM. At least 200 cells were counted in each experiment. The number of survived cells was determined via colorimetric assay using a water-soluble tetrazolium salt (the cell counting kit-8; Dojindo Laboratories).
# GOTO cells [5] = experiment: as above; conditions: zVAD 100 μM
# Method: as §2, §3
smiles,measurement,setting,value
CCCC[C@@H](C=O)NC(=O)[C@H](CC(C)C)NC(=O)[C@H](CC(C)C)NC(C)=O [ALLN] (Ac-Leu-Leu-[Nle]-aldehyde),cell death frequency,[1],significantly increased
same,accumulation of expressed LAPTM5,[2],significantly accumulated
CO/C1=C\C(C)=C\[C@@H](C)[C@@H](O)[C@@H](C)C/C(C)=C/C=C/[C@H](OC)[C@@H]([C@@H](C)[C@@H](O)[C@H](C)[C@@]2(O)C[C@@H](O)[C@H](C)[C@@H](C(C)C)O2)OC1=O [Bafilomycin A1],cell death frequency,[1],significantly increased
same,accumulation of expressed LAPTM5,[2],significantly accumulated
OO [H2O2],LAPTM5 expression,GOTO cells [3],activated
same,frequency of cell death,GOTO cells [3],frequency of concentration-dependent cell death increased
same,MYCN expression,GOTO cells [3],decrease
CC(C)C[C@@H](C=O)NC(=O)[C@H](CC(C)C)NC(=O)[C@H](CC(C)C)NC(=O)OCc1ccccc1 [MG132] (Cbz-Leu-Leu-Leu-aldehyde),cell death frequency,[1],significantly increased
same,accumulation of expressed LAPTM5,[2],significantly accumulated
"C[n+]1ccc(-c2ccccc2)cc1 [MPP+, 1-methyl-4-phenylpridinium]",LAPTM5 expression,GOTO cells [3],activated
same,frequency of cell death,GOTO cells [3],frequency of concentration-dependent cell death increased
same,MYCN expression,GOTO cells [3],decrease
Cl.N [NH4Cl],cell death frequency,[1],significantly increased
same,accumulation of expressed LAPTM5,[2],significantly accumulated
O=C(O)c1cn(C2CC2)c2cc(N3CCNCC3)c(F)cc2c1=O [ciprofloxacin],LC3-II detection,[4],LC3-II was detected
same,p62/SQSTM1 protein accumulation,[4],p62/SQSTM1 protein accumulation was observed
COC(=O)C[C@H](NC(=O)[C@H](C)NC(=O)[C@@H](NC(=O)OCc1ccccc1)C(C)C)C(=O)CF [zVAD-fmk] (Cbz-Val-Ala-Asp(OMe)-CH2F),inhibition of Ad-LAPTM5-induced cell death by caspase inhibitor,IMR32 cells,would not be inhibited
same,inhibition of Ad-LAPTM5-induced cell death by caspase inhibitor,GOTO cells [5],would not be inhibited
